Drawing on ChEMBL document CHEMBL1151650, “New Furostanol Glycosides from Asparagus plumosus Leaves” (J Nat Prod, 1985), this text covers Activity for two compounds.

The structures appear in SMILES notation.

This data set has as its system Biomphalaria glabrata. Description: Toxic molluscicidal activity against Biomphalaria glabrata. It is filed as ADME, organism-based. The settings on record: in vivo.

Regarding `CO[C@]1(CC[C@H](C)CO[C@@H]2O[C@H](CO)[C@@H](O)[C@H](O)[C@H]2O)O[C@H]2C[C@H]3[C@@H]4CC=C5C[C@@H](O[C@@H]6O[C@H](CO)[C@@H](O)[C@H](O[C@@H]7O[C@@H](C)[C@H](O)[C@@H](O)[C@H]7O)[C@H]6O[C@@H]6O[C@@H](C)[C@H](O)[C@@H](O)[C@H]6O)CC[C@]5(C)[C@H]4CC[C@]3(C)[C@H]2[C@@H]1C`, the Activity result is reported as “Non-toxic”. As to `C[C@@H](CC[C@@]1(O)O[C@H]2C[C@H]3[C@@H]4CC=C5C[C@@H](O[C@@H]6O[C@H](CO)[C@@H](O)[C@H](O[C@@H]7O[C@@H](C)[C@H](O)[C@@H](O)[C@H]7O)[C@H]6O[C@@H]6O[C@@H](C)[C@H](O)[C@@H](O)[C@H]6O)CC[C@]5(C)[C@H]4CC[C@]3(C)[C@H]2[C@@H]1C)CO[C@@H]1O[C@H](CO)[C@@H](O)[C@H](O)[C@H]1O`, the Activity result was “Non-toxic”.
